Laboratory results from patent US20260345609A1, “METHODS FOR PROMOTING PERSISTENCE OF CELL THERAPY” (Legend Biotech Ireland Limited, priority 2022, published 2026).

Assays:
Assay type in all cases: cell-based, human
[1] = test system: LUCAR-20SD cells; test: Effect of MTX concentration on proliferation of LUCAR-20SD cells in vitro (AOPI counting)
Text: pLVX-Puro vector purchased from Clontech was subjected to the digestion reaction with ClaI and EcoRI restriction enzymes, and the CMV promoter was replaced with a human EFlapromoter (GenBank: J04617.1) to obtain the pLVX-hEF1α vector. The gene of DHFR L22F/F31S (SEQ ID NO: 1) was inserted between SIV NEF M116 and CD20 CAR of LCAR-UL186S, which was disclosed in PCT patent applications No. PCT/CN2020/112181 and PCT/CN2020/112182. The fusion gene sequence of SIV Nef_M116-P2A-DHFR L22F/F31S-IRES-CD8α SP-CD20 scFv (Leu16)-CD8α Hinge-CD8α TM-4-1BB-ITAM010, hereinafter referred to as “LUCAR-20SD” (SEQ ID NO: 4) was cloned into the expression plasmid pLVX-hEF1α to form the LUCAR-20SD expression plasmid named as M1586. The recombinant expression plasmid M1586 was extracted, mixed with psPAX2 and pMD2. G helper plasmids in a certain proportion, and co-transfected into HEK 293T cells. After 60 h of transfection, the cell culture supernatant containing the virus was collected and centrifuged at 4° C. and 3000 rpm for 5 min. After the supernatant was filtered through a 0.45 μm filter, the 500 KD hollow fiber membrane column tangential flow technique was used to further concentrate to prepare a lentivirus concentrate, which was stored at-80° C. for later use.
50 mL of fresh peripheral blood of volunteers was extracted, and mixed with lymphocyte separation medium. The peripheral blood mononuclear cells (PBMC) were separated by density gradient centrifugation. The cells were labeled with magnetic beads using Pan T Cell Isolation Kit (Miltenyi Biotech), and T lymphocytes were isolated and purified, and then activated by CD3/CD28 magnetic beads. After culturing for 24 hours in a 37° C., 5% CO2 incubator, 5×10^6 activated T lymphocytes were infected with the lentiviral vector of LUCAR-20SD. […]
Cultured with the addition of methotrexate (MTX) at the concentrations of 0 μM, 0.01 μM, 0.05 μM, 0.1 μM, 1 μM, or 2 μM, the cell number of LUCAR-20SD cells at day0 day3 day6 day9, day 12, and the cell number of CAR-γδT cells at day0 day2 day5 day7 were counted by AOPI. […]

[2] = test system: CAR-γδT cells; test: Effect of MTX concentration on proliferation of CAR-γδT cells in vitro (AOPI counting)
Description: 50 mL of fresh peripheral blood of volunteers was extracted, mixed with lymphocyte separation medium, and then peripheral blood mononuclear cells (PBMC) were separated by density gradient centrifugation. The isolated lymphocytes were overnight cultured in RPMI 1640 medium, supplemented with L-glutamine (2 mM, Sigma-Aldrich), penicillin (100 IU/mL)/streptomycin (100 μg/mL) (Sigma-Aldrich, Missouri, USA), 10% serum (Gibco, Massachusetts, USA), zoledronic acid (5 μM, Actavis, New Jersey, USA), IL-2 (100 IU/mL; Aldesleukin, Novartis, Frimley, UK). The γδT cells selected above were transduced with lentiviral vector expressing an anti-CLL1 CAR and DHFR L22F/F31S at a multiplicity of infection (MOI) of 5. After 48 hours of transduction, IL-2 (100 IU/mL) was added every 2-3 days to expand T cells expressing the anti-CLL1 CAR (hereinafter referred to as CAR-γδT cells).
Cultured with the addition of methotrexate (MTX) at the concentrations of 0 μM, 0.01 μM, 0.05 μM, 0.1 μM, 1 μM, or 2 μM, the cell number of LUCAR-20SD cells at day0 day3 day6 day9, day 12, and the cell number of CAR-γδT cells at day0 day2 day5 day7 were counted by AOPI. Cell proliferation curves were plotted separately.

[3] = test system: untransduced T cells (UnT); test: In vitro mixed lymphoid (MLR) model with CAR-γδT cells, UnT and U937 cells: host UnT cells; conditions: 0.05 μM and 0.5 μM MTX; mixed culture with CAR-γδT and U937 cells
Description: To evaluate the ability of γδ T cells to tolerate allogeneic T cell rejection, an in vitro mixed lymphoid (MLR) model was established.
Using the T cells from a random healthy donor (B donor), CAR-γδT cells were prepared following the method in Example 1, as the graft cells. Un-transduced T cells (UnT) from another random healthy donor (T cell donor A) were also prepared, as the host cells.
The density of CLL1 positive human lymphoma cells (U937) was adjusted to 1×10^6 cells/mL. U937 cells were treated with 20 μg/mL mitomycin at 37° C. for 3 h, washed three times with 10 mL DPBS, and suspended in the culture medium. 20×10^6 untransduced T cells (UnT, T cell donor A), 1×10^6 CAR-γδT cells (T cell donor B), and 5×10^6 treated human lymphoma cells U937 were mixed and cultured in the medium. The cell mixture was divided into 3 groups, and 0 μM, 0.05 μM MTX, or 0.5 μM MTX was added, respectively. […] CAR-γδT cells were stimulated repeatedly with U937 cells at day0, day4, day7 at an E/T ratio of 1:1 According to the formula: fold change of cell number (UnT)=[cell number counted by AOPI×(CD3-/TCR VY9+%)]/20, fold change of cell number (CAR-γδT)=[cell number counted by AOPI×(CD3+/TCR Vγ9+%)]/1, the cell proliferation curves of UnT and CAR-γδT cells were plotted.

For `CN(Cc1cnc2nc(N)nc(N)c2n1)c1ccc(C(=O)N[C@@H](CCC(=O)O)C(=O)O)cc1` [MTX, methotrexate], the “proliferation of LUCAR-20SD cells compared with 0 μM MTX” value ([1]; 0.01 μM to 1 μM MTX, day 12, p>0.05) was “no significant difference in cell proliferation”, the “proliferation of LUCAR-20SD cells compared with 0 μM MTX” value ([1]; 2 μM MTX, day 12, p<0.05) was “decreased significantly” and the minimal effective concentration ([1]; Homo sapiens, 288 h, day 12, read-out: MTX concentration that affects the proliferation of LUCAR-20SD cells) was at least 2 µM. For the same molecule, the “proliferation of CAR-γδT cells compared with 0 μM MTX” value ([2]; 0.01 μM to 0.1 μM MTX, day 7, p>0.05) was “not significantly different”, the “proliferation of CAR-γδT cells compared with 0 μM MTX” value ([2]; 1 μM MTX and 2 μM MTX, day 7, p<0.05, dose-dependent) was “significantly decreased” and the minimal effective concentration ([2]; Homo sapiens, 168 h, day 7, read-out: MTX concentration that affects the proliferation of CAR-γδT cells) was at least 1 µM. For the same molecule, the “proliferation of UnT cells” value [3] was “significantly inhibited”.
